Starred links: 1 amine or outer side, 2 acyl side, 3 side chain; linkers in the order of their positions; H or OH if unused. Positions of bridges follow the written chain, without caps; N, C: chain ends. Non-standard residues stand in square brackets, D forms with d. Residues, ends and D or L forms follow the SMILES beside them. Groups on a side chain read outwards from the residue. Chains are numbered I, II in the order given. *: point of attachment. F(4amPEG2NHDOTA-Lu) = lutetium complex of (S)-2,2',2''-(10-(1-(4-(2-amino-2-carboxyethyl)phenyl)-3,12-dioxo-5,8-dioxa-2,11-diazatridecan-13-yl)-1,4,7,10-tetraazacyclododecane-1,4,7-triyl)triacetic acid (Phe with 4-aminomethyl-PEG2-DOTA-Lu), O=C([O-])CN1CCN(CC(=O)[O-])CCN(CC(=O)NCCOCCOCC(=O)NCc2ccc(C[C@H](N[*:1])C(=O)[*:2])cc2)CCN(CC(=O)[O-])CC1.[Lu+3]; X2 = O=C(O)CN1CCN(CC(=O)O)CCN(CC(=O)NC(CC(=O)NCCOCCOCCOCC(=O)[*:1])CC(=O)NCCOCCOCCOCC(=O)[*:2])CCN(CC(=O)O)CC1; X1 = O=C(O)CN1CCN(CC(=O)O)CCN(CC(=O)NC(CC(=O)NCCOCCOCC(=O)[*:1])CC(=O)NCCOCCOCC(=O)[*:2])CCN(CC(=O)O)CC1; Q(Pyrro(2CN4F2)) = 2-amino-5-(2-cyano-4,4-difluoropyrrolidin-1-yl)-5-oxopentanoic acid; COpipzaa = 4-(carboxymethyl)piperazine-1-carbonyl, O=C(O)CN1CCN(C(=O)*)CC1; DOTA = O=C(O)CN1CCN(CC(=O)O)CCN(CC(=O)*)CCN(CC(=O)O)CC1; Nicotinoyl(6-NMe3+) = C[N+](C)(C)c1ccc(C(=O)*)cn1; Phe(4-CH2NH2) = NCc1ccc(C[C@H](N)C(=O)O)cc1; Piperazinyl(4-CH2COOH) = O=C(O)CN1CCN(*)CC1; AEF = NCCOc1ccc(C[C@H](N)C(=O)O)cc1; NMeF = CN[C@@H](Cc1ccccc1)C(=O)O; Ahp(2) = CCCCC[C@H](N)C(=O)O; hSer = N[C@@H](CCO)C(=O)O; AEEA = NCCOCCOCC(=O)O; CO = O=C([*:1])[*:2]; Propyl = CCC*
What was measured:
human FAP [1] = target: T1, human FAP (Homo sapiens, UniProt Q12884); experiment: Surface plasmon resonance (SPR) for peptide affinity, human FAP; type: binding; conditions: read-out: h. FAP, SPR, KD
T1 construct: the biotinylated His, Avi tag, human FAP (26-760, FAP-H82Q6); His; Avi tag (biotinylated); purchased AcroBiosystems FAP-H82Q6
T1 sequence (Q12884 26-760): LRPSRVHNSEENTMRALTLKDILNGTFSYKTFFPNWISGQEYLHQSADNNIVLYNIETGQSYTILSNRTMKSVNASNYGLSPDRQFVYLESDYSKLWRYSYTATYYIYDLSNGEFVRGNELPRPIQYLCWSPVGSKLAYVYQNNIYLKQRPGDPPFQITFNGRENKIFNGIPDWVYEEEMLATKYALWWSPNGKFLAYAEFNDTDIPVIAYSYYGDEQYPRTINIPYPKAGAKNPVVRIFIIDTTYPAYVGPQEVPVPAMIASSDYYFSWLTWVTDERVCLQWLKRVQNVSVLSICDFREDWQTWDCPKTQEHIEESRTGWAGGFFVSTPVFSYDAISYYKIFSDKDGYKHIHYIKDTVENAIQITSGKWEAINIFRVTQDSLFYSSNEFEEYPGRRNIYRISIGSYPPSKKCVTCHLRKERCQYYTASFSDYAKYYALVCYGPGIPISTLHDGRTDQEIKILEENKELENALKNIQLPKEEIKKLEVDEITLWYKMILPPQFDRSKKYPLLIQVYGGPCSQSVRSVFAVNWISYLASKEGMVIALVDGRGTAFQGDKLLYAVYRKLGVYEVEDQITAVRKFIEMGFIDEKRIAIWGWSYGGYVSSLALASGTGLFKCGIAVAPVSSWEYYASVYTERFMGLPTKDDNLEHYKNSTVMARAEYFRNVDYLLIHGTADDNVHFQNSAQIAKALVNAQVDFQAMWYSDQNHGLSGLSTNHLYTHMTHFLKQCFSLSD
Procedure: Peptide affinities (KD) were determined by SPR using a Biacore™ 8K device (Cytiva) towards the following proteins: biotinylated His, Avi tag, human FAP (26-760, FAP-H82Q6), biotinylated His, Avi tag, mouse FAP (26-761, FAP-M82Q5), His tag, human DPP4 (34-766, DP4-H82E3), all purchased from AcroBiosystems and His tag, mouse DPP4 (29-760, 954-SE) from R&D Systems. The FAP proteins and their homologous were diluted to a concentration of 2 μg/mL into acetate buffer pH 5.5, then immobilized onto a CM5 sensorchip (Cytiva, BR-1005-30) to reach a response around 2000 R U. The running buffer HBS-EP+pH 7.6 (20× from Teknova CAT. No: H8022) contained 10 mM HEPES pH 7.6, 150 mM NaCl, 3 mM EDTA, 0.05% Tween20 and 2% DMSO. Experiments were carried out at 25° C. using a flow rate of 30 μL/min. Compounds were tested in single cycle kinetic mode at 8 different concentrations. Curve fitting was performed using the Biacore™ 8K evaluation software. The sensorgrams were fitted by applying a 1:1 binding model to calculate kinetic rate constants and equilibrium dissociation constants (KD).
For this assay, the setup had the same conditions (flow rate, running buffer, peptide dilution) as described above for the CM5 method. The oligo CAP reagent obtained in the CAPture Kit (Ref. 28920234) was 1/5 diluted into running buffer and used with a contact time of 300 s at a flow rate of 2 μL/min. The human and mouse FAP constructs described above were used (from AcroBiosystems or produced in house). The FAP proteins were diluted to a concentration of 2 μg/mL into acetate pH 5.5, 0.05% Tween20 and used with a contact time of 600 s at a flow rate of 10 μL/min. The peptides were tested with an association time of 280 s followed by a dissociation time of 3000 s at a flow rate of 30 μL/min. The regeneration was done using the regeneration solution (8 M guanidine-HCl, 1 M NaOH) as obtained with a contact time of 270 s at a flow rate of 10 μL/min. […] The compounds marked with an asterisk were tested against human and mouse DDP4.

mouse FAP [2] = target: T2, mouse FAP (Mus musculus, UniProt P97321); experiment: Surface plasmon resonance (SPR) for peptide affinity, mouse FAP; type: binding
T2 construct: biotinylated His, Avi tag, mouse FAP (26-761, FAP-M82Q5); His; Avi tag (biotinylated); purchased AcroBiosystems FAP-M82Q5
T2 sequence (P97321 26-761): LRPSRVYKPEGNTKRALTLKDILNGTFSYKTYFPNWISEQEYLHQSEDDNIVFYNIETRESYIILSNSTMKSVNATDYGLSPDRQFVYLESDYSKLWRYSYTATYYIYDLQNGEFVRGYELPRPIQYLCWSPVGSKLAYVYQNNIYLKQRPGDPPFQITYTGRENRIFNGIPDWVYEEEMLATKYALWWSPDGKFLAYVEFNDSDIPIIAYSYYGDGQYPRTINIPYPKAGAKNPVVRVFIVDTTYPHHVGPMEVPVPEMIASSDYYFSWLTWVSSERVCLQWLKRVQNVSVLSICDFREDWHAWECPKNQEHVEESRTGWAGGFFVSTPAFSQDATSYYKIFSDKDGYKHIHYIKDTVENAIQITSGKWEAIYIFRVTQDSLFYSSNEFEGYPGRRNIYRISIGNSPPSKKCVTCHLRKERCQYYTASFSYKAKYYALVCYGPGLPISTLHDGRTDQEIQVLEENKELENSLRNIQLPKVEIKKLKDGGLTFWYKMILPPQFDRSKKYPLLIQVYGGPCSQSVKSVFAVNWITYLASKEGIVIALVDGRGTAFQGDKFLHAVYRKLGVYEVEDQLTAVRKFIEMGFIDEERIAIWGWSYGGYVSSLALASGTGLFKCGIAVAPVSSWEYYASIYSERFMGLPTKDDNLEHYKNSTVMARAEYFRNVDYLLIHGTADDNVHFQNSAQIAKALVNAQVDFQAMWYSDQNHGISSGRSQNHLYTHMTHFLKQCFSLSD
Summary of the method: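 Biotinylated His/Avi-tagged FAP ectodomains (human 26-760, mouse 26-761) captured or immobilized on Biacore sensor chips; peptides run at 25 °C in HBS-EP+ pH 7.6 with 2% DMSO, single-cycle kinetics, 8 concentrations. KD from 1:1 binding-model fit of sensorgrams.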

human FAP [3] = target: T1, human FAP; experiment: Enzymatic FAP competition assay (Z-Gly-Pro-AMC fluorescence), human FAP; type: biochemical; conditions: read-out: h. FAP, Enz., IC50
Summary of the method: (§1)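 Biotinylated His/Avi-tagged FAP ectodomain (human 26-760, mouse 26-761) at 0.01 nM, preincubated 24 h with peptides (14 concentrations, up to 1 μM) in pH 7.5 phosphate, 150 mM NaCl, 0.05% Tween20, 1% DMSO. Then 50 μM Z-Gly-Pro-AMC, 4 h at 22-24° C; AMC fluorescence (380/460 nm) gave IC50 from duplicate points.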

mouse FAP [4] = target: T2, mouse FAP; experiment: Enzymatic FAP competition assay (Z-Gly-Pro-AMC fluorescence), mouse FAP; type: biochemical; conditions: read-out: m. FAP, Enz., IC50
Summary of the method: as §1

| Compound | Kd (human FAP [1]) | Kd (mouse FAP [2]) | IC50 (human FAP [3]) | IC50 (mouse FAP [4]) |
| --- | --- | --- | --- | --- |
| CCCOCC[C@@H]1NC(=O)[C@H](Cc2ccc(CNC(=O)COCCOCCNC(=O)CC(CC(=O)NCCOCCOCC(=O)NCc3ccc(C[C@@H]4NC(=O)[C@H](Cc5ccccc5)N(C)C(=O)CNC(=O)CNC(=O)[C@H]5CCCN5C(=O)[C@H](CC(=O)O)NC(=O)[C@H](CCCCNC(=O)N5CCN(CC(=O)O)CC5)NC(=O)CNC(=O)[C@H](Cc5c[nH]c6ccccc56)NC(=O)[C@H](CCOCCC)NC4=O)cc3)NC(=O)CN3CCN(CC(=O)O)CCN(CC(=O)O)CCN(CC(=O)O)CC3)cc2)NC(=O)[C@H](Cc2ccccc2)N(C)C(=O)CNC(=O)CNC(=O)[C@H]2CCCN2C(=O)[C@H](CC(=O)O)NC(=O)[C@H](CCCCNC(=O)N2CCN(CC(=O)O)CC2)NC(=O)CNC(=O)[C@H](Cc2c[nH]c3ccccc23)NC1=O [Example M3] (I: cyclo(GG[NMeF][Phe(4-CH2NH2)][hSer](Propyl)WGK([CO-Piperazinyl(4-CH2COOH)])D[dP]) / II: cyclo(GG[NMeF][Phe(4-CH2NH2)][hSer](Propyl)WGK([CO-Piperazinyl(4-CH2COOH)])D[dP]); linker I:4-II:4 via X1) | < 0.043 nM | < 0.078 nM | 0.035 nM | 0.144 nM |
| CCCCC[C@@H]1NC(=O)[C@H](Cc2ccc(OCCN)cc2)NC(=O)[C@H](Cc2ccccc2)N(C)C(=O)CNC(=O)[C@@H]2CCCN2C(=O)[C@H]2CCCN2C(=O)[C@H](CC(=O)O)NC(=O)[C@H](Cc2ccc(O)cc2)NC(=O)CNC(=O)[C@H](Cc2c[nH]c3ccccc23)NC1=O [Example A32, Pro-Gly-NMePhe-F(4OEtNH2)-Ahp-Trp-Gly-Tyr-Asp-D-Pro] (cyclo(G[NMeF][AEF][Ahp(2)]WGYD[dP]P)) | 0.27 nM | 0.55 nM | 0.239 nM | 1.2 nM |
| Gly-Gly-NMePhe-F(4amPEG2NHDOTA-Lu)-Q(Pyrro(2CN4F2))-Trp-Gly-K(COpipzaa)-Asp-D-Pro (cyclo(GG[NMeF][F(4amPEG2NHDOTA-Lu)][Q(Pyrro(2CN4F2))]WGK(COpipzaa)D[dP]); also: Lu complex) [Example C19] | < 0.018 nM | < 0.04 nM | 0.018 nM | 0.031 nM |
| CCCOCC[C@@H]1NC(=O)[C@H](Cc2ccc(CNC(=O)COCCOCCNC(=O)CN3CCN(CC(=O)O)CCN(CC(=O)O)CCN(CC(=O)O)CC3)cc2)NC(=O)[C@H](Cc2ccccc2)N(C)C(=O)CNC(=O)CNC(=O)[C@H]2CCCN2C(=O)[C@H](CC(=O)O)NC(=O)[C@H](CCCCNC(=O)N2CCN(CC(=O)O)CC2)NC(=O)CNC(=O)[C@H](Cc2c[nH]c3ccccc23)NC1=O [Example B2, Gly-Gly-NMePhe-F(4ampEG2NHDOTA)-hS(Pr)-Trp-Gly-K(COpipzaa)-Asp-D-Pro] (cyclo(D[dP]GG[NMeF][Phe(4-CH2NH2)]([AEEA-DOTA])[hSer](Propyl)WGK([CO-Piperazinyl(4-CH2COOH)]))) | < 0.013 nM | < 0.022 nM | 0.007 nM | 0.018 nM |
| CCCCC[C@@H]1NC(=O)[C@H](Cc2ccc(OCCNC(=O)COCCOCCOCCNC(=O)CC(CC(=O)NCCOCCOCCOCC(=O)NCCOc3ccc(C[C@@H]4NC(=O)[C@H](Cc5ccccc5)N(C)C(=O)CNC(=O)[C@H](CCCCNC(=O)N5CCN(CC(=O)O)CC5)NC(=O)[C@H]5CCCN5C(=O)[C@H](CC(=O)O)NC(=O)[C@H](Cc5ccc(O)cc5)NC(=O)CNC(=O)[C@H](Cc5c[nH]c6ccccc56)NC(=O)[C@H](CCCCC)NC4=O)cc3)NC(=O)CN3CCN(CC(=O)O)CCN(CC(=O)O)CCN(CC(=O)O)CC3)cc2)NC(=O)[C@H](Cc2ccccc2)N(C)C(=O)CNC(=O)[C@H](CCCCNC(=O)N2CCN(CC(=O)O)CC2)NC(=O)[C@H]2CCCN2C(=O)[C@H](CC(=O)O)NC(=O)[C@H](Cc2ccc(O)cc2)NC(=O)CNC(=O)[C@H](Cc2c[nH]c3ccccc23)NC1=O [Example M4] (I: cyclo(K([CO-Piperazinyl(4-CH2COOH)])G[NMeF][AEF][Ahp(2)]WGYD[dP]) / II: cyclo(K([CO-Piperazinyl(4-CH2COOH)])G[NMeF][AEF][Ahp(2)]WGYD[dP]); linker I:4-II:4 via X2) | 0.32 nM | 0.51 nM | 0.38 nM | 1.1 nM |
| CCCOCC[C@@H]1NC(=O)[C@H](Cc2ccc(CNC(=O)COCCOCCNC(=O)c3ccc([N+](C)(C)C)nc3)cc2)NC(=O)[C@H](Cc2ccccc2)N(C)C(=O)CNC(=O)CNC(=O)[C@H]2CCCN2C(=O)[C@H](CC(=O)O)NC(=O)[C@H](CCCCNC(=O)N2CCN(CC(=O)O)CC2)NC(=O)CNC(=O)[C@H](Cc2c[nH]c3ccccc23)NC1=O [Example C58] (cyclo(D[dP]GG[NMeF][Phe(4-CH2NH2)]([AEEA-Nicotinoyl(6-NMe3+)])[hSer](Propyl)WGK([CO-Piperazinyl(4-CH2COOH)]))) | < 0.007 nM | < 0.017 nM | 0.006 nM | 0.017 nM |
